Laboratory results: patent US20040202652A1, “Methods and compositions for control of bone formation via modulation of leptin activity” (Baylor College of Medicine, priority 1999, published 2004)
Entries after “also recorded” stand apart in the source; their conditions may differ.

B1: Oncostatin-M: positive control that induces Stat3 phosphorylation and immediate early gene expression in osteoblasts (protein, UniProt P13725 26-221, looked up)
Oncostatin-M: AAIGSCSKEYRVLLGQLQKQTDLMQDTSRLLDPYIRIQGLDVPKLREHCRERPGAFPSEETLRGLGRRGFLQTLNATLGCVLHRLADLEQRLPKAQDLERSGLNIEDLEKLQMARPNILGLRNNIYCMAQLLDNSDTAEPTKAGRGASQPPTPTPASDAFQRKLEGCRFLHGYHRFMHSVGRVFSKWGESPNRSRR

Assays:
[1] = serum leptin radioimmunoassay in centrally infused ob/ob mice; assay type: in vivo; conditions: after intracerebroventricular infusion, 8 ng/hr, 28 days
Method: The coexistence of a high bone mass phenotype and of hypogonadism was so exceptional that it raised the hypothesis that bone resorption might be defective in these mice. The increased urinary elimination of deoxypyridinoline crosslinks (Dpd), a biochemical marker of bone resorption (Eyre et al., 1988, Biochem 252, 494-500), in the ob/ob mice argued against this hypothesis (wild-type: 10.5±2.5 nM Dpd/mM creatinine; ob/ob: 24.0 b 4.0 nM Dpd/mM creatinine). Deoxypyridinoline crosslinks were measured in morning urines using the Pyrilinks-D immunoassay kit (Metra Biosystem). Creatinine values were used for standardization between samples (Creatinine kit, Metra Biosystem). Circulating concentration of […] and leptin were quantified by radioimmunoassays, using the third generation estradiol kit (Diagnostic system laboratories) and the mouse leptin RIA kit (Linco), respectively. […] Coadministration of an estrogen analog with an Ob or ObR inhibitor further increases the high bone mass phenotype.
Lastly, the issue of whether leptin binding to its hypothalamic receptor could correct the high bone mass phenotype of the ob/ob mice as it can rescue their obesity phenotype was addressed. […]

Stat3 phosphorylation = experiment: Western blot analysis of Stat3 phosphorylation in primary osteoblast cultures; assay type: cell-based, mice
Method: (§1) Expression of leptin in osteoblasts was studied in subconfluent primary osteoblast cultures from wild-type mice which were maintained for 4 days in 10% FBS mineralization medium and then subsequently switched to 0.5% for 2 days and replaced daily. Medium was replaced 2 hours before a 20 min treatment with 80 ng/mL leptin (Sigma) or 40 ng/mL Oncostatin M (R&D Diagnostics) or vehicle. RNA extractions were performed using Triazol (Gibco). Northern blots were performed with 15 μg of total RNA according to methods well known in the art.
To determine whether or not leptin could transduce its signal in osteoblasts, serum-starved primary osteoblasts isolated from wild-type mice were treated with leptin. […]
(§2) The phosphorylation of Stat3, a downstream effector of leptin signaling in its target cells (Tartaglia et al., 1995, Cell 83, 1263-1271; Baumann et al., 1996, Proc Natl Acad Sci USA 93, 8374-8378; Ghilardi et al., 1996, Proc Nati Acad Sci USA 93, 6231-6235; Vaisse et al., 1996, Nat Genet 14, 95-97), was monitored, in addition to the expression of two immediate early genes whose transcription is increased following leptin treatment of target cells (Elmquist et al., 1997, Endocrinology 138, 839-842). […]

ob/ob mice [2] = experiment: intracerebroventricular infusion of leptin in ob/ob mice, bone histology and histomorphometry; assay type: in vivo; conditions: ovariectomized ob/ob mice, third ventricle, 8 ng/hr, 28 days, versus PBS
Method: (§3) Histologic analysis was performed on undecalcified sections stained with the von Kossa reagent and counterstained with Kernechtrot. In 3 and 6 month-old mice the presence of many more thick trabeculae in the bones of ob/ob mice compared to those of wild-type mice was observed (FIG. 1B). The cortical bone was not affected. Histomorphometric quantification according to standard techniques were performed (Parfitt et al., 1987, J Bone Min Res 2, 595-610) using the Osteomeasure Analysis System (Osteometrics, Atlanta). Statistical differences between groups (n=4 to 6) were assessed by Student's test. […] The functional consequences of this increase in bone mass were analyzed by comparing the biomechanical properties of long bones of 6 month-old ob/ob mice, wild-type mice, and wild-type mice that have been ovariectomized (wild-type-ovx) for 4 months to mimic the hypogonadic state of the ob/ob mice. An assay in which femora were tested to failure by three-point bending on a servo-hydrolic testing machine (Zwick GmbH & Co.) at a constant displacement rate of 10 mm/min was used to determine failure load, which is a measure of the strength of the bones. […] Analysis of the bones of the db/db mice that have an inactivating mutation of the leptin receptor was also performed (Tartaglia et al., 1995, Cell 83, 1263-1271). Like the ob/ob mice, the db/db mice are obese and hypogonadic. There was an increase in the number of trabeculae in both long bones and vertebrae similar to that observed in ob/ob mice (FIG. IE) resulting in a 3-fold increase in bone volume compared to wild-type mice (FIG. 1F).
The increase in bone mass could be due to an increase in osteoblastic bone formation, to a decrease in osteoclastic bone resorption, or to a combination of both abnormalities. To study osteoblast function in vivo, the rate of bone formation was quantified following double labeling with calcein, a marker of newly formed bone (FIG. 3A) as described (Ducy et al., 1999, Genes Dev 13, 1025-1036). Calcein was injected twice at 8 day intervals and animals were sacrificed two days later. In 3 month-old, and 6 month-old ob/ob mice there was a 70% and 60%, respectively, increase of the bone formation rate compared to the one of wild-type littermates (FIG. 3B).
Lastly, the issue of whether leptin binding to its hypothalamic receptor could correct the high bone mass phenotype of the ob/ob mice as it can rescue their obesity phenotype was addressed. To that end pumps delivering either PBS or leptin (8 ng/hr) in the third ventricle of ob/ob mice were inserted as follows. Animals were anesthetized with avertin and placed on a stereotaxic instrument (Stoelting). The calvaria was exposed and a 0.7 mm hole was drilled upon bregma. A 28-gauge cannula (Brain infusion kit U, Alza) was implanted into the third ventricle according to the following coordinates: midline, −0.3 AP, 3 mm ventral (0 point bregma). The cannula was secured to the skull with cyanoacrylate, and attached with Tygon tubing to an osmotic pump (Alza) placed in the dorsal subcutaneous space of the animal. The rate of delivery was 0.25:1/hour (8 ng/hr of leptin (Sigma)) or PBS for 28 days. The dosage has been previously shown to have no effect when administered systemically (Halaas et al., 1997, Proc Nati Acad Sci USA 94, 8878-8883). […]

Tis11 and c-fos genes = experiment: Northern blot analysis of immediate early gene expression in primary osteoblast cultures; assay type: cell-based, mice; conditions: 20 min treatment
Method: as §1
as §2, with “839-842). As a positive control oncostatin-M that induces Stat3 phosphorylation and activates the expression of the same two immediate early genes in osteoblasts (Levy et al., 1996, Endocrinology 137, 1159-1165) was utilized. Western blot analysis was performed to determine Stat3 phosphorylation as follows.” for “839-842).”

[3] = test system: primary osteoblast cultures from wild-type mice; experiment: long-term leptin treatment of primary osteoblast cultures (van Gieson and von Kossa staining); assay type: cell-based; conditions: 1.2 μg/mL for 5 days, versus control (vehicle) cultures
Method: To determine whether or not leptin could transduce its signal in osteoblasts, serum-starved primary osteoblasts isolated from wild-type mice were treated with leptin. Primary osteoblast cultures from calvaria of newborn wild-type or db/db mice were established as previously described (Ducy et al., 1999, Genes Dev 13, 1025-1036) and maintained in mineralization medium (αMEMI 0.1 mg/mL ascorbic acid; 5 mM […]) supplemented with 10% […]. Cultures of mutant cells were maintained in this medium for 15 days before analysis. Cultures derived from wild-type mice were maintained for 10 days in this medium then the percentage of serum was reduced to 0.5% and the medium supplemented with 1.2 μg/mL leptin (Sigma) or vehicle for 5 days.
Finally, the effect of a long-term leptin treatment of primary osteoblast cultures from wild-type mice on extracellular matrix synthesis and bone matrix mineralization was determined. The presence of a collagen-rich extracellular matrix and of mineralization nodules was assessed by whole-mount staining of the cultures by the van Gieson and von Kossa reagent, respectively. No difference was observed when assessing collagen synthesis or mineralization nodule formation between control and leptin-treated cultures (FIG. 5E).

[4] = 8 ng/hr dosage, systemic; cited from earlier work
ob/ob mice [5] = experiment: 17 β-estradiol pellet treatment to correct hypogonadism of ob/ob mice; assay type: in vivo
Method: as §3
Nevertheless, to address this point more thoroughly the hypogonadism of the ob/ob mice was exploited. Hypogonadism normally leads to an increase in osteoclasts number and in bone resorptive activity. Thus, if the osteoclasts of the ob/ob mice were functional, correcting the hypogonadism of these mice should decrease their rate of bone resorption by diminishing the number of osteoclasts and thereby should further increase their bone mass. On the other hand, if the osteoclasts of the ob/ob mice were not functioning properly, correcting their hypogonadism should not affect the severity of their high bone mass phenotype. To determine which of these two possibilities was correct, 17 β-estradiol or placebo pellets (Innovative Research of America) were implanted subcutaneously in 2-month-old female ob/ob mice to maintain a serum concentration of 250 pg/mL. These animals were analyzed after a 3-month treatment period.

[6] = end of the 3-month treatment period
[7] = female ob/ob mice, subcutaneous pellets, 3-month treatment

| Molecule | leptin in the serum [1] | Stat3 phosphorylation, several doses (Stat3 phosphorylation; several doses, physiologic and supraphysiologic) | bone appearance, classical histology (ob/ob mice [2]) | bone formation rates (ob/ob mice [2]) | bone volume (ob/ob mice [2]) | number of trabeculae (ob/ob mice [2]) | trabeculae thickness (ob/ob mice [2]) | expression of Tis11 and c-fos (Tis11 and c-fos genes) | collagen synthesis (van Gieson staining) [3] | matrix mineralization / mineralization nodule formation (von Kossa staining) [3] | effect of the dosage when administered systemically [4] | increase in bone volume, treated ob/ob mice compared to estradiol-treated wild-type mice (ob/ob mice [5]; [6]) [%] | increase in bone volume, treated ob/ob mice compared to untreated wild-type mice (ob/ob mice [5]; [6]) [fold] | correction of hypogonadism (aspect of uteri, levels of estradiol in blood) (ob/ob mice [5]; [7]) | high bone mass phenotype compared to placebo treated ob/ob mice (ob/ob mice [5]; [7]) | osteoclast number (ob/ob mice [5]; [7]) | correction of hypogonadism (aspect of uteri, levels of estradiol in blood) (ob/ob mice [5]; female ob/ob mice, subcutaneous pellets, 3-month treatment, listed as estradiol) | bone trabeculae, histological analysis of vertebrae (ob/ob mice [5]; treated wt and even more treated ob/ob mice) | Stat3 phosphorylation (Stat3 phosphorylation; primary osteoblasts from wild-type mice, serum-starved) |
| --- | --- | --- | --- | --- | --- | --- | --- | --- | --- | --- | --- | --- | --- | --- | --- | --- | --- | --- | --- |
| leptin: endogenous polypeptide product of an ob gene; polypeptide hormone (Sigma) | No leptin | failed to induce | regained a normal appearance | significantly decreased | significantly decreased | fewer trabeculae | significantly decreased | not | No difference; also recorded: No effect | No difference; also recorded: No effect | no effect | – | – | – | – | – | – | – | – |
| C[C@]12CC[C@@H]3c4ccc(O)cc4CC[C@H]3[C@@H]1CC[C@@H]2O [17 β-estradiol] | – | – | – | – | – | – | – | – | – | – | – | 50 | 3 | correction of the uterus atrophy | further increase of the high bone mass phenotype | normalization of the osteoclast number | corrected their hypogonadism | significant increase in bone trabeculae | – |
| B1 | – | – | – | – | – | – | – | quickly and transiently activated | – | – | – | – | – | – | – | – | – | – | did induce |
